# Source: patent US7132546B2, “Aniline derivatives or salts thereof and cytokine production inhibitors containing the same” (Ishihara Sangyo Kaisha, Ltd., priority 2000, dated 2006)
# Experiments:
# [1] = tested on: interleukin 5 (IL-5) production; experiment: Cytokine production inhibitory effect: IL-5 production by murine spleen cells treated with anti-mouse CD3 antibody and IL-2 (ELISA); type: cell-based, Balb/c mice; conditions: anti-CD3 antibody + IL-2, 40 to 48 hours, read-out: IL-5 production inhibitory ratio (%); for inhibition at 100 ppm: test compound 100 ppm
# Method: (§1) Murine spleen cells were treated with anti-mouse CD3 antibody and IL-2 to induce cytokine production. The test compounds were added to the cytokine production system to evaluate their inhibitory effect. Namely, anti-mouse CD3 antibody adjusted to from 10 to 20 μg/ml with borate buffered physiological saline (pH 8.5) was pipetted into a 96-well cell culture plate in an amount of 50 μl/well and left to stand at 4° C. for 18 hours. The unreacted solution was removed, washing with Hank's buffer solution was carried out once, and IL-2 adjusted to 10 ng/ml with a RPMI liquid containing 10% fetal bovine serum (FCS) was pipetted in an amount of 50 μl/well. For the negative control group, a solution alone without anti-CD3 antibody nor IL-2 was applied. Then, the diluted solution of each of the test compounds (concentration: 100 ppm unless otherwise specified) was pipetted in an amount of 50 μl/well, and a cell suspension of 1×10^7 cells/ml, prepared from spleen of Balb/c mice (female, 7 to 10 week old) was pipetted thereinto in an amount of 100 μl/well. After cultivation in an incubator (37° C., 5% carbon dioxide gas) for from 40 to 48 hours, the culture supernatant was recovered to measure the cytokine production amount by ELISA method.
# (§2) With respect to interleukin 5 (IL-5) as a typical Th2 type cytokine and interferon γ (IFN-γ) as a typical Th1 type cytokine, measurements were carried out by the following methods, respectively. Namely, quantitative determination of IL-5 was carried out by the following ELISA method. First, rat anti-mouse IL-5 antibody (Endogen Code No. MM-550C) as a primary antibody was diluted with carbonate buffer solution (pH 9.5) to 1 μg/ml, and spread in a 96 well plate (IWAKI, Code No. 3860-096) in an amount of 50 μl/well for coating at 4° C. overnight (16 to 24 hours). Then, the plate was subjected to blocking at 37° C. for 2 hours by phosphate buffered physiological saline containing 10% FCS (pH 7.2) (blocking buffer solution) (250 μl/well). The plate was washed with PBS (washing buffer) containing 0.05% Tween 20 (Nacalai Tesque, Code No. 281-51) four times, and a diluted liquid of the culture supernatant was spread in an amount of 50 μl/well, followed by incubation at room temperature for 1 hour. For preparation of a standard line, recombinant mouse IL-5 (R&D systems, Code No. 405-ML) was employed. The plate was washed with a washing buffer four times, and biotin-labeled rat anti-mouse IL-5 antibody (Pharmingen, Code No. 18062D) as a secondary antibody diluted to 0.5 μg/ml with a blocking buffer containing 0.05% Tween 20 was added thereto (50 μl/well), followed by incubation at room temperature for 1 hour. The plate was washed with a washing buffer four times, strept avidin-labeled peroxidase (ProZyme, Code No. CJ30H001) diluted 800 times with a blocking buffer containing 0.05% Tween 20 was added thereto (50 μl/well), followed by reaction at room temperature for 15 minutes. The plate was washed with a washing buffer four times, and a […] substrate solution (SIGMA, Code No. T-8665) was added thereto in an amount of 100 μl/well for color developing for from 10 to 20 minutes. A 1M sulfuric acid solution was added thereto in an amount of 100 μl/well to terminate the reaction, and absorption (wavelength 450 nm) was measured by means of micro plate reader (SPECTRA max, Wako Pure Chemicals Industries, Ltd.). Quantitative determination of IFN-γ was carried out in the same manner as the measurement of IL-5, employing rat anti-mouse IFN-γ antibody (Pharmingen, Code No. 18181D) and biotin labeled rat anti-mouse IFN-γ antibody (Pharmingen, Code NO. 18112D), as a primary antibody and a secondary antibody, respectively. For preparation of a standard line, recombinant mouse IFN-γ (GENZYME, Code No. 3485) was employed. The experiment was carried out in duplicate, and the average of the cytokine production amount was obtained. […]
# [2] = tested on: interferon γ (IFN-γ) production; experiment: Cytokine production inhibitory effect: IFN-γ production by murine spleen cells treated with anti-mouse CD3 antibody and IL-2 (ELISA); type: cell-based, Balb/c mice; conditions: anti-CD3 antibody + IL-2, 40 to 48 hours, read-out: IFN-γ production inhibitory ratio (%); for inhibition at 100 ppm: test compound 100 ppm
# Method: as §1, §2
melting point [°C],Compound,inhibition at 100 ppm [1] [%],inhibition at 100 ppm [2] [%],inhibition at 10 ppm ([1]; test compound 10 ppm) [%],inhibition at 10 ppm ([2]; test compound 10 ppm) [%]
219 to 221,Cc1cc(Oc2ncc(C(F)(F)F)cc2Cl)ccc1NC(=O)c1cc([N+](=O)[O-])ccc1Cl [compound 91],53,1,–,–
154 to 155,O=C(Nc1ccc(Oc2ccc(C(F)(F)F)cn2)c(Cl)c1)c1ccc(C(F)(F)F)cc1 [compound 8],–,–,58,67
174,O=C(Nc1ccc(Sc2ncc(C(F)(F)F)cc2Cl)cc1)c1cc([N+](=O)[O-])ccc1Cl [compound 59],100,100,–,–
289 to 290,Cc1cc(C23CC4CC(CC(C4)C2)C3)ccc1NC(=O)c1ccc([N+](=O)[O-])cc1 [compound 74],43,10,–,–
176,O=C(Nc1ccc(C(F)(F)F)cc1)c1cc([N+](=O)[O-])ccc1Cl [compound 30],100,100,–,–
143,N#Cc1ccc(Cl)c(C(=O)Nc2ccc(Oc3ccccc3)cc2)c1 [compound 85],91,86,–,–
184 to 187,Cc1cc(C23CC4CC(CC(C4)C2)C3)ccc1NC(=O)c1cc(C#N)ccc1Cl [compound 76],96,96,–,–
224 to 228,O=C(Nc1ccc(C23CC4CC(CC(C4)C2)C3)cc1)c1cc([N+](=O)[O-])ccc1F [compound 93],100,100,–,–
229 to 231,N#Cc1ccc(Cl)c(C(=O)Nc2ccc(Sc3ncc(C(F)(F)F)cc3Cl)cc2)c1 [compound 87],100,100,–,–
152 to 154,COc1ccc(C(=O)Nc2ccc(Oc3ccc(C(F)(F)F)cn3)c(Cl)c2)cc1OC [compound 9],96,100,–,–
232,Cc1cc(C23CC4CC(CC(C4)C2)C3)ccc1NC(=O)c1cccc(C(=O)O)c1 [compound 35],100,100,–,–
148,O=[N+]([O-])c1ccc(Cl)c(S(=O)(=O)Nc2ccc(Oc3ccccc3)cc2)c1 [compound 49],100,100,–,–
111,Cc1cc(C23CC4CC(CC(C4)C2)C3)ccc1NC(=O)c1ccc(Cl)c([N+](=O)[O-])c1 [compound 62],100,100,–,–
206,Cc1ccc(NC(=O)c2cc([N+](=O)[O-])ccc2Cl)c(C)c1 [compound 26],82,30,–,–
165 to 172,Cc1ccc(S(=O)(=O)Nc2ccc(NC(=O)c3cc([N+](=O)[O-])ccc3Cl)cc2)cc1 [compound 145],100,100,–,–
175 to 180,O=C(Nc1ccc(OCC23CC4CC(CC(C4)C2)C3)cc1)c1cc([N+](=O)[O-])ccc1Cl [compound 110],99,100,–,–
194 to 198,O=C(Nc1ccc(Oc2ncc(C(F)(F)F)cc2Cl)c(N2CCCCC2)c1)c1cc([N+](=O)[O-])ccc1Cl [compound 131],100,100,–,–

melting point [°C],Compound,inhibition at 100 ppm [1] [%],inhibition at 100 ppm [2] [%],inhibition at 10 ppm ([1]; test compound 10 ppm) [%],inhibition at 10 ppm ([2]; test compound 10 ppm) [%]
115,COc1ccc([N+](=O)[O-])c(OC)c1C(=O)Nc1ccc(C23CC4CC(CC(C4)C2)C3)cc1C [compound 52],75,96,–,–
189 to 191,O=C(Nc1cc(Cl)c(Oc2ncc(C(F)(F)F)cc2Cl)c(Cl)c1)c1cc([N+](=O)[O-])ccc1Cl [compound 112],100,100,–,–
193 to 195,"O=C(Nc1ccc(OCc2ncc(C(F)(F)F)cc2Cl)cc1)c1cc([N+](=O)[O-])ccc1Cl [Compound No. 135, N-(4-(3-chloro-5-trifluoromethyl-2-pyridylmethyloxy)phenyl)-2-chloro-5-nitrobenzamide]",62,33,–,–
203 to 205,CC(=O)Nc1cc(NC(=O)c2cc([N+](=O)[O-])ccc2Cl)ccc1Oc1ncc(C(F)(F)F)cc1Cl [compound 125],100,100,–,–
195,O=C(Nc1ccc(N2CCOCC2)cc1)c1cc([N+](=O)[O-])ccc1Cl [compound 66],95,91,–,–
221 to 223,Cc1cc(NC(=O)c2cc(C#N)ccc2Cl)ccc1Oc1ncc(C(F)(F)F)cc1Cl [compound 118],78,47,–,–
176 to 178,O=C(Nc1ccc(OCc2ccccc2)cc1)c1cc([N+](=O)[O-])ccc1Cl [compound 77],74,50,–,–
221 to 227,O=C(Nc1nc2ccccc2s1)c1cc([N+](=O)[O-])ccc1Cl [compound 143],97,100,–,–
178,COC(=O)c1cc(C(=O)Nc2ccc(C34CC5CC(CC(C5)C3)C4)cc2C)cc([N+](=O)[O-])c1 [compound 47],89,95,–,–
191 to 195,O=C(Nc1ccc(Oc2ncc(C(F)(F)F)cc2Cl)cc1)c1cc([N+](=O)[O-])ccc1Br [compound 99],100,89,–,–
184,COC(=O)c1cccc(C(=O)Nc2ccc(C34CC5CC(CC(C5)C3)C4)cc2C)c1 [compound 34],88,97,–,–
128,"O=C(Nc1ccc(Oc2ccccc2)cc1)c1cc([N+](=O)[O-])ccc1Cl [Compound No. 27, N-(4-phenoxyphenyl)-2-chloro-5-nitrobenzamide]",96,99,–,–
252 to 258,O=C(Nc1ccc(S(=O)(=O)Nc2ncccn2)cc1)c1cc([N+](=O)[O-])ccc1Cl [compound 137],98,98,–,–
167 to 172,O=C(Nc1ccc(Oc2ccc(C(F)(F)F)cc2Cl)cc1)c1cc([N+](=O)[O-])ccc1Br [compound 96],100,100,–,–
208 to 213,CN(C)c1cc(NC(=O)c2cc([N+](=O)[O-])ccc2Cl)ccc1Oc1ncc(C(F)(F)F)cc1Cl [compound 128],96,93,–,–
241,Cc1cc(C23CC4CC(CC(C4)C2)C3)ccc1NS(=O)(=O)c1cc([N+](=O)[O-])ccc1C [compound 44],93,100,–,–
